Reference: ChEMBL document CHEMBL1201862, “PubChem BioAssay data set” (2004)
The source made the active and inactive calls.

Experiments:
[1] = activation of miR-122 Renilla sensor silencing – cell-based, Huh7 psiCHECK-miR122, Renilla luciferase, cherry-picked, dose response (AID 651956); type: functional;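 also: huh7 hepatoma cells stably carrying a psiCHECK-2 miR-122 sensor plasmid; renilla luciferase signal reporting endogenous miR-122 activity after 48 h compound exposure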
[2] = target: T1, Rac GTPase-activating protein 1 (Homo sapiens, UniProt Q9H0H5); assay: blockers of MgcRacGAP-driven Rac1 GTP hydrolysis – biochemical, ADP Hunter fluorescence, primary and confirmatory, confirmation (AID 624330); type: functional
T1 sequence (Q9H0H5 whole entry): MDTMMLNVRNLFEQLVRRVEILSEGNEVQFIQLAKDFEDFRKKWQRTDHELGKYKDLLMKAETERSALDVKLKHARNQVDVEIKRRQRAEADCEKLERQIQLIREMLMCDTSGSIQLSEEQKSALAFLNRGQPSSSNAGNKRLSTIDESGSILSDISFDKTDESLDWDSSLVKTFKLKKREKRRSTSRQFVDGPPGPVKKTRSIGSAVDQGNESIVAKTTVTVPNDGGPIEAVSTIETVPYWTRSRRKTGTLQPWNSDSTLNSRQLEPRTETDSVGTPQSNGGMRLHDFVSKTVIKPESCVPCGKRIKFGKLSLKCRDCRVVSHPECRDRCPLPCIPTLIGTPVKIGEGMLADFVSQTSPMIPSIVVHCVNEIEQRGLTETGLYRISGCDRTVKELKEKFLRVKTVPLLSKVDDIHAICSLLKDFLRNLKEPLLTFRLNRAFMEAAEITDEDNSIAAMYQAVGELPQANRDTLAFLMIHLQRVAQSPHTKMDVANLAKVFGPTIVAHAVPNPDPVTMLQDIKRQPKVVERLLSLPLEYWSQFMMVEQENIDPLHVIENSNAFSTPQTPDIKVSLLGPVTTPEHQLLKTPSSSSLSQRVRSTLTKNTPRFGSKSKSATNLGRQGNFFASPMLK

[3] = target: T2, DNA repair and recombination protein RAD54-like (Homo sapiens, UniProt Q92698); assay: RAD54 Holliday junction migration blockers – biochemical, fluorescence, cherry-picked samples, dose series, confirmation (AID 651657); type: functional
T2 sequence (Q92698 whole entry): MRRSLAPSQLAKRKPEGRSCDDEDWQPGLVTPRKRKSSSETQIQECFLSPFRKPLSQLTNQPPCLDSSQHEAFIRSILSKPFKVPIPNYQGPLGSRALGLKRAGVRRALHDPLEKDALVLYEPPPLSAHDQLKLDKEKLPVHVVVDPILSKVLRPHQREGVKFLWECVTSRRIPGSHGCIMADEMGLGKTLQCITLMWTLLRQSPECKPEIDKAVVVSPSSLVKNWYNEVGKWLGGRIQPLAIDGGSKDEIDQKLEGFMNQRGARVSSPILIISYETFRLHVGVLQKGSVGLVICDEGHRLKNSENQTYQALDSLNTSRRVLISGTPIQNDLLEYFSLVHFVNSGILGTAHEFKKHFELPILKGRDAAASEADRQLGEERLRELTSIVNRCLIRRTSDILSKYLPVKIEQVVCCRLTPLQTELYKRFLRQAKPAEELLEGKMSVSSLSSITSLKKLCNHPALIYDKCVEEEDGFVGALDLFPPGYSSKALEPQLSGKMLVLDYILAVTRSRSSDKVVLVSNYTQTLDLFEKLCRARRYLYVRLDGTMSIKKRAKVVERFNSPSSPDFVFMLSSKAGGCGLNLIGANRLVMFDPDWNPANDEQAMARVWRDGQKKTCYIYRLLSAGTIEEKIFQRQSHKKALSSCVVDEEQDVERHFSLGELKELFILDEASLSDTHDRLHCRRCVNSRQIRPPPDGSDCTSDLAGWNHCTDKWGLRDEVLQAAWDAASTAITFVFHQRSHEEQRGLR

[4] = cells; type: functional
[5] = HepG2 cell cytotoxicity, dose response, cytotoxicity control for non-replicating M. tuberculosis project (AID 489018); type: functional; details: Mycobacterium tuberculosis
[6] = target: T3, Short transient receptor potential channel 4 (Mus musculus, UniProt Q9QUQ5); assay: calcium entry via TRPC4 opening agents – cell-based, HEK293 TRPC4/mu-opioid, Fluo-4 calcium, dose response (AID 434937); type: functional
T3 sequence (Q9QUQ5 whole entry): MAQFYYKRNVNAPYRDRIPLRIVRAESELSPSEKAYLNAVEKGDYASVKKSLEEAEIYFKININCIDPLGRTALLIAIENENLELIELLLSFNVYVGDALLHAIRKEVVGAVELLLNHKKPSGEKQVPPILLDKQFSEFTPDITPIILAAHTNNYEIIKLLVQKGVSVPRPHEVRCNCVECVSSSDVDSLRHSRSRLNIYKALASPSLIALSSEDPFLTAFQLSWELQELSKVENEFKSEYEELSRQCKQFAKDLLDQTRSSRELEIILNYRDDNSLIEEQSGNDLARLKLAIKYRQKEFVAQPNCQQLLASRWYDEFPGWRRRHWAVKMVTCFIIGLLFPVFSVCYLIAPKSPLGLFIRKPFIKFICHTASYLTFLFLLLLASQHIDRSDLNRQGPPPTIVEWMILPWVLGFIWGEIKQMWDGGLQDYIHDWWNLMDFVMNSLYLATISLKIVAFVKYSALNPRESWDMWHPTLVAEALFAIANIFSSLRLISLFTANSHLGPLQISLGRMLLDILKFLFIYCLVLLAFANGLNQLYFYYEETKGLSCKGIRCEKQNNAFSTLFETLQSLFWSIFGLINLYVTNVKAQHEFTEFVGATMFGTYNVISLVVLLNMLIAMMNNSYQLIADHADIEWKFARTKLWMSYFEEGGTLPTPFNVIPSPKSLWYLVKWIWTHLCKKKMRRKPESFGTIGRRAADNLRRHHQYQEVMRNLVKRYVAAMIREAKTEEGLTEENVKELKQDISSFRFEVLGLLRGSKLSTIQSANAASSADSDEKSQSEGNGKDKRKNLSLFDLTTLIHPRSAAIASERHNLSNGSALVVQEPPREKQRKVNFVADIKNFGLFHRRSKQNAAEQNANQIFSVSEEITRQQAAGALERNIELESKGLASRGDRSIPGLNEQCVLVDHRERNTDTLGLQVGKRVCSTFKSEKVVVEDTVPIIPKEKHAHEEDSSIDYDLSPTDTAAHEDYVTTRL

[7] = viability loss in HeLa cells – cytotoxicity control for MgcRacGAP inhibitor project, dose response (AID 624300); type: functional
[8] = cytotoxicity toward MDA-MB-231 breast cancer cells – cell-based, CellTiter-Glo luminescence, cherry-pick, cytotoxicity control for RAD54 inhibitor project, dose response (AID 651692); type: functional
[9] = Trypanosoma cruzi growth suppression in host cells – NIH3T3 host cells, beta-gal luminescence, confirmation (AID 2044); type: functional, cell-based;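 also: intracellular parasites grown in NIH/3T3 mouse fibroblasts as host cells; luminescent beta-galactosidase reporter signal from transgenic T. cruzi replicating inside host cells; inhibitors lower the luminescence signal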
[10] = Vero E6 cell cytotoxicity, dose response, cytotoxicity control for non-replicating M. tuberculosis project, secondary assay (AID 492998); type: functional, VeroE6; details: Vero C1008
[11] = target: T4, DNA repair protein RAD52 homolog (Homo sapiens, UniProt P43351); type: functional, biochemical
T4 sequence (P43351 whole entry): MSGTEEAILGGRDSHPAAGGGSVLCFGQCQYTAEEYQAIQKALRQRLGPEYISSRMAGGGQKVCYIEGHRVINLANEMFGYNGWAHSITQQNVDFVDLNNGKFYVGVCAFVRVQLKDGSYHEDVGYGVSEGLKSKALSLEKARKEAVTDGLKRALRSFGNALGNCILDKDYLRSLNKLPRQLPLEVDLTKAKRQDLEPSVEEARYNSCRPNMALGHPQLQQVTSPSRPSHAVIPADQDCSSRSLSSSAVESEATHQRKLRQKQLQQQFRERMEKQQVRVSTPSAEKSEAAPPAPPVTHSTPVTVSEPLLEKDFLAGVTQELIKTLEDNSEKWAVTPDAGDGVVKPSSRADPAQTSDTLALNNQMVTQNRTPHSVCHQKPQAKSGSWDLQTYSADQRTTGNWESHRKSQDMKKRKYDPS

[12] = NIH3T3 cell viability loss – ATP luminescence, mouse fibroblasts, counter-screen, dose response (AID 2010); type: functional, cell-based;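 also: cells exposed to compound for about 90 hours before reading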
[13] = THP-1 cell cytotoxicity, dose response, cytotoxicity control for non-replicating M. tuberculosis project (AID 489025); type: functional
[14] = target: T5, Sentrin-specific protease 8 (Homo sapiens, UniProt Q96LD8); type: functional
T5 sequence (Q96LD8 whole entry): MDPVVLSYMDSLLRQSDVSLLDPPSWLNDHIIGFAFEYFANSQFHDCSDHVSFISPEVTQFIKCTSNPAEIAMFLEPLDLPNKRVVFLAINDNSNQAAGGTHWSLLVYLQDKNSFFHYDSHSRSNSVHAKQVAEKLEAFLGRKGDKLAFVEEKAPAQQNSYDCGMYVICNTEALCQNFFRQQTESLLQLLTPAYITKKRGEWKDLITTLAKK

[15] = target: T5, Sentrin-specific protease 8; type: functional; remark: listed apart in the source
[16] = target: T6, ATP-dependent translocase ABCB1 (Homo sapiens, UniProt P08183); assay: P-gp JC-1 efflux blockade concentration-response – Jurkat-DNR cells, flow cytometry, set 2, dose response (AID 504569); type: functional; details: read-out: EC50_MICROM_;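 also: potency of pump inhibitors that raise cellular JC-1 green fluorescence up to the nicardipine level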
T6 sequence (P08183 whole entry): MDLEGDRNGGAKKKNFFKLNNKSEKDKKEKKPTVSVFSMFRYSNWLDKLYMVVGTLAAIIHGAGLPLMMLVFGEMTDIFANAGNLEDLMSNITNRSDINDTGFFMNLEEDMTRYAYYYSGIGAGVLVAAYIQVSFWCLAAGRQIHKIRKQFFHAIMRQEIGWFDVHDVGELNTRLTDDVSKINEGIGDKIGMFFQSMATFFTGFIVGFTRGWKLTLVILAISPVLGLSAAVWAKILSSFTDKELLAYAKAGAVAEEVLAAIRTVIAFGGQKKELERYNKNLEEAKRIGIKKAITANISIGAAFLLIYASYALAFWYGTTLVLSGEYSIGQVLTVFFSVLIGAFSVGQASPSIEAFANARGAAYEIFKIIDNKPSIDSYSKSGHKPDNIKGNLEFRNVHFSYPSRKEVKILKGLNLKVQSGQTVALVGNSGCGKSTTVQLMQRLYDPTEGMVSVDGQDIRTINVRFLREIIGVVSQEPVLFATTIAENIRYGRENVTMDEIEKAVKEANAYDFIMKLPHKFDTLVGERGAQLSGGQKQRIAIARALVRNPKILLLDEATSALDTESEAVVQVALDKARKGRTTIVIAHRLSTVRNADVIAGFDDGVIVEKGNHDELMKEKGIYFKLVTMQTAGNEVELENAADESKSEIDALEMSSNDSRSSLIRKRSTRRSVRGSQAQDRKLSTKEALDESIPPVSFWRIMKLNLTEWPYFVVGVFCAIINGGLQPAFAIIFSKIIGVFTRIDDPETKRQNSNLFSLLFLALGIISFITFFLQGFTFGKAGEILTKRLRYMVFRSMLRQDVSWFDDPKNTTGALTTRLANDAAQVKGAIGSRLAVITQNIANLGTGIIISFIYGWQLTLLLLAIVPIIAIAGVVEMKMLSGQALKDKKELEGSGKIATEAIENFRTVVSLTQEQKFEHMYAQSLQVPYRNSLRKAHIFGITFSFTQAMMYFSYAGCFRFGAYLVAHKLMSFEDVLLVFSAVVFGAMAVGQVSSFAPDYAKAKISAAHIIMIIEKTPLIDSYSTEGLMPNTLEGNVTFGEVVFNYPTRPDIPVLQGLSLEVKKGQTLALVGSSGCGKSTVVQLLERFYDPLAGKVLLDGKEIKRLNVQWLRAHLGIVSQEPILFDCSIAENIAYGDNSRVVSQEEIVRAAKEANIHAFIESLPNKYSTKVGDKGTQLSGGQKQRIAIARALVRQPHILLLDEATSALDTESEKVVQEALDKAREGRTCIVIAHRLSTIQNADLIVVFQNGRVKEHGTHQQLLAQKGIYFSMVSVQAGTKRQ

[17] = target: T6, ATP-dependent translocase ABCB1; assay: inhibition of BCRP-mediated JC-1 efflux – Ig-MXP3 cells, flow cytometry, set 2, dose response (AID 504566); type: functional; details: read-out: EC50_MICROM_;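 also: flow cytometry median green fluorescence of retained JC-1 dye; potency of efflux pump inhibition measured as rising substrate retention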
[18] = blockers of CRF-binding protein–CRF-R2 complex – cell-based, uHTS hits, 384-well, dose response (AID 651639); type: functional, Homo sapiens; details: read-out: IC50_Mean
[19] = target: T7, Corticotropin-releasing factor receptor 2/Corticotropin-releasing factor-binding protein (Homo sapiens, UniProt P24387+Q13324); assay: Dose Response confirmation of uHTS hits for small molecule antagonists of the CRF-binding protein and CRF-R2 receptor complex.; type: functional; details: read-out: IC50_Mean
T7 sequence (Q13324 whole entry): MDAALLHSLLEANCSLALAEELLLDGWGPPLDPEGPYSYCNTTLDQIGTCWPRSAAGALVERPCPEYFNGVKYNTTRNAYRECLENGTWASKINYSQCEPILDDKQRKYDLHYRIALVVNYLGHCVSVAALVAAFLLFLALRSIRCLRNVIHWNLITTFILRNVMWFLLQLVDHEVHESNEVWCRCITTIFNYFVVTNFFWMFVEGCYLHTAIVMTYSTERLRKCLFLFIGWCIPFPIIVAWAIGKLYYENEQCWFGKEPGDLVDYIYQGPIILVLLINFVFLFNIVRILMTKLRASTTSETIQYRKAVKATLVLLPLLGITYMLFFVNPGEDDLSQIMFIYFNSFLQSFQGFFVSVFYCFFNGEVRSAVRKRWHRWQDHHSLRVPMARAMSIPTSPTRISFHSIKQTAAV
T7 sequence (P24387 whole entry): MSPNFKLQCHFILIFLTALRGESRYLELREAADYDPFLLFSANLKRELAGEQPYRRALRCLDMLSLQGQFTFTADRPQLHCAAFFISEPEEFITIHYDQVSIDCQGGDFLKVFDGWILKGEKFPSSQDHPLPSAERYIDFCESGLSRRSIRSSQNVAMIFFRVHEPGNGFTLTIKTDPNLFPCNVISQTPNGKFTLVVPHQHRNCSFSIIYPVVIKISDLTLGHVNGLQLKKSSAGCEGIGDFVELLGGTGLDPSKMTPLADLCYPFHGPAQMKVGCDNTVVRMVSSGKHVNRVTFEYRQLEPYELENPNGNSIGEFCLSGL

[20] = target: T7, Corticotropin-releasing factor receptor 2/Corticotropin-releasing factor-binding protein; assay: activators of CRF receptor 2 with binding protein – uHTS hits, confirmation (AID 602473); type: functional; details: read-out: EC50_Mean

## C[C@H](CO)N1C[C@H](C)[C@@H](CN(C)Cc2ccc(-c3ccccc3)cc2)Oc2ncc(C#CCN(C)C)cc2C1=O
[1]
  AC50: 20.3 µM (active)

## CCCCN(CC)CCNC(=O)c1cc2c(-c3ccc(Cl)cc3)nn(C)c2s1
[2]
  IC50: 229 µM (active)
[3]
  AC50: 21.7 µM (active)
[4]
  IC50: 9.15 µM (active)
[5]
  CC50: 5.62 µM (active)
[6]
  EC50: 0.211 µM (active)
[7]
  CC50: 55.5 µM (active)
[8]
  AC50: 23.7 µM (active)
[9]
  EC50: 0.809 µM (active)
[10]
  CC50: 12.9 µM (active)
[11]
  AC50: 6.76 µM (active)
[12]
  EC50: 8.44 µM (active)
[13]
  CC50: 13.7 µM (active)

## COC(=O)C[C@H]1CC[C@H]2[C@@H](COc3ccc(NC(=O)Nc4c(C)noc4C)cc3C(=O)N2C)O1
[1]
  AC50: 40.4 µM (active)

## COC(=O)CCCC1=CC2=CC(=O)C(C)(OC(=O)c3cccs3)C(=O)C2=CN1C1CC1 (stereo not drawn)
[14]
  IC50: 7.17 µM (active)
[15]
  IC50: 17.3 µM (active)

## O=C(C1CCCCC1)N1CCN(c2cc(-c3ccccc3)nc3cc(-c4cccc(Cl)c4)nn23)CC1
[16]
  EC50: 1.71 µM (active)
[17]
  EC50: 1.75 µM (active)

## COc1ccc(-c2cc3nc(C)cc(N4CCN(C(=O)c5ccco5)CC4)n3n2)cc1
[16]
  EC50: 4.78 µM (active)
[17]
  EC50: 1.52 µM (active)

## CCCOc1ccc(C(=O)N2CCN(c3ccc(NC(=O)CC)cc3Cl)CC2)cc1
[18]
  IC50: 16.3 µM (active)
[19]
  IC50: 16 µM (active)
[20]
  EC50: > 53 µM (inactive)
